The results in this text go back to ChEMBL document CHEMBL3727350, “Agents and methods for treating ischemic and other diseases” (2014).

Calls of active or inactive are those of the source. The calls are words filed in the database; no cut-off is given here.

Broadly, the inhibition is the change of the read-out against control, counted positive when it falls.

The target in assay [1] is Transient receptor potential cation channel subfamily M member 7 (Mus musculus) (UniProt Q923J1). Briefly: Inhibition of Tet-induced Flag-tagged mouse TRPM7 expressed in HEK293 cells assessed as inhibition of channel-mediated cell death in presence of Mg2+ incubated for 24 to 48 hrs by propidium iodide uptake assay. Format: cell-based. Also on record: concentration or dose not given beside the values.
Chain of Transient receptor potential cation channel subfamily M member 7 (Mus musculus) (Q923J1 whole entry): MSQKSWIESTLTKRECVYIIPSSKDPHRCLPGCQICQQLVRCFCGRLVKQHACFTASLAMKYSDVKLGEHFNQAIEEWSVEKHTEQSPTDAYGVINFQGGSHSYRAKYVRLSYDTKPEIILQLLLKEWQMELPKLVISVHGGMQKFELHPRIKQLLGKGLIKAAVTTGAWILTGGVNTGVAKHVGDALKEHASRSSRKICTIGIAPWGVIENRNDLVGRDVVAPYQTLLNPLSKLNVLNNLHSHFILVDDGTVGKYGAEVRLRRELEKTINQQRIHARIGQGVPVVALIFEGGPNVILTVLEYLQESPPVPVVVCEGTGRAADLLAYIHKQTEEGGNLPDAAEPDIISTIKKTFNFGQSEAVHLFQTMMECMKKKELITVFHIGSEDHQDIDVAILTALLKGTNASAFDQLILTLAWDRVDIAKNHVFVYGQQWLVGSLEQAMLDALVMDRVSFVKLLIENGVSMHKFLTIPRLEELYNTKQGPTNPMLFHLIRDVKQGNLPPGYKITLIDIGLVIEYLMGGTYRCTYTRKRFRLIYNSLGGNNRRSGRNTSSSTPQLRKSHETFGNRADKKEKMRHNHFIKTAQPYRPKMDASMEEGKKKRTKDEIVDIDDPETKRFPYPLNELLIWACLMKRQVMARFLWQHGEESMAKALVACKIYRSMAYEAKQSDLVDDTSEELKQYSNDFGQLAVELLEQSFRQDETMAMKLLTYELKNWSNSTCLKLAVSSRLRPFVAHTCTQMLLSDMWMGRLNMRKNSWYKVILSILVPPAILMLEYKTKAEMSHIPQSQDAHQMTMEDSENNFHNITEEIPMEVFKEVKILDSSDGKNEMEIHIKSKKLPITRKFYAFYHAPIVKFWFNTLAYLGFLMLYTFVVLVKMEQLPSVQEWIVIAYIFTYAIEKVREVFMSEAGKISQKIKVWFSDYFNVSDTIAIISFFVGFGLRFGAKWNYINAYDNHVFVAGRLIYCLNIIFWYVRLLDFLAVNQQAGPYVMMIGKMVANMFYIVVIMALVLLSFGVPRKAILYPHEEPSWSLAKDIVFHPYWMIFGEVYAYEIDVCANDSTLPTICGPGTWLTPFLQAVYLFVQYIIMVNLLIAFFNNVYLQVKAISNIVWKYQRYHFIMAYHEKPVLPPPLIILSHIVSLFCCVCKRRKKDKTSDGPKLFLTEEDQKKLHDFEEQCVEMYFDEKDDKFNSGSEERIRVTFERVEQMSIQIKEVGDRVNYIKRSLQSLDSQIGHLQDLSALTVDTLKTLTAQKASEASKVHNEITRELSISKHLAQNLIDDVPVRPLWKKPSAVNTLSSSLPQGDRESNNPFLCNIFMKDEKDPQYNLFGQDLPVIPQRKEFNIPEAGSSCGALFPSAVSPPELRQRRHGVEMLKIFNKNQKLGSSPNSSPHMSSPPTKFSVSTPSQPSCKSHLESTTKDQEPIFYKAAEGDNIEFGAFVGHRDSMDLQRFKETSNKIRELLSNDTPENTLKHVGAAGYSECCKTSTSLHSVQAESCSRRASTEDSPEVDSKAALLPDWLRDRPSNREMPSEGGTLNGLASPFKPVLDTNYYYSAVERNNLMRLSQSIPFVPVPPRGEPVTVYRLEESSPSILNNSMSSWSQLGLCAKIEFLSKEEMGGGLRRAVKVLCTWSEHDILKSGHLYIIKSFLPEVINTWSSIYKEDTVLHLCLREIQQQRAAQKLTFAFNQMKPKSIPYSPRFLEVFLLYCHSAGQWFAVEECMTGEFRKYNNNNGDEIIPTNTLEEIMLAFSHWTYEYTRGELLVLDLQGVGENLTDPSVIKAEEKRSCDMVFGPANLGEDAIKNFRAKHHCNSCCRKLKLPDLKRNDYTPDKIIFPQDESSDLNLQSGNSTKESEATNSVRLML

In the next assay the test system is HEK293. Briefly: Effect on Tet-induced Flag-tagged mouse TRPM7 expression in HEK293 cells. The following applies: Homo sapiens. Type of assay: functional, cell-based.
For assay [2], the target named is Transient receptor potential cation channel subfamily M member 7 (Mus musculus) (UniProt Q923J1). Briefly: Inhibition of Tet-induced Flag-tagged mouse TRPM7 expressed in HEK293 cells assessed as reduction in channel currents at 0.3 to 30 uM by whole cell patch clamp assay. Type of assay: cell-based.
For assay [3] the target is unchanged. Briefly: Inhibition of TRPM7 in mouse primary neuronal cells exposed to oxygen glucose deprivation condition for 1 to 3 hrs assessed as reduction in TRPM7-mediated anoxic cell death dosed after oxygen glucose deprivation condition by propidium iodide uptake assay. As to conditions: Primary neuron.
Assay [4] shares this target. Briefly: Inhibition of TRPM7 in mouse primary neuronal cells exposed to oxygen glucose deprivation condition for 1 to 3 hrs assessed as reduction in TRPM7-mediated anoxic cell death dosed before oxygen glucose deprivation condition by propidium iodide uptake assay. As to conditions: Primary neuron.
Assay [5] can be described thus: Inhibition of cell proliferation of human WERI cells at 10 uM incubated for 48 to 96 hrs. Type of assay: functional.
The target of assay [6] is Transient receptor potential cation channel subfamily M member 7 (Mus musculus) (UniProt Q923J1). Briefly: Inhibition of TRPM7 in mouse mouse primary cortical neurons exposed to 2 hrs oxygen glucose deprivation condition assessed as reduction in TRPM7-mediated anoxic cell death measured after 20 hrs by propidium iodide uptake assay. Format: cell-based. As to conditions: Cerebral cortex neuron.

Assay [7] concerns the target Transient receptor potential cation channel subfamily M member 7 (Rattus norvegicus) (UniProt Q925B3). Briefly: Inhibition of TRPM7 in rat H9C2 cells assessed as reduction in channel currents at 0.3 to 30 uM by whole cell patch clamp assay. Format: cell-based. Background: Patch clamp records ionic current or voltage across a cell membrane.

Chain of Transient receptor potential cation channel subfamily M member 7 (Rattus norvegicus) (Q925B3 whole entry): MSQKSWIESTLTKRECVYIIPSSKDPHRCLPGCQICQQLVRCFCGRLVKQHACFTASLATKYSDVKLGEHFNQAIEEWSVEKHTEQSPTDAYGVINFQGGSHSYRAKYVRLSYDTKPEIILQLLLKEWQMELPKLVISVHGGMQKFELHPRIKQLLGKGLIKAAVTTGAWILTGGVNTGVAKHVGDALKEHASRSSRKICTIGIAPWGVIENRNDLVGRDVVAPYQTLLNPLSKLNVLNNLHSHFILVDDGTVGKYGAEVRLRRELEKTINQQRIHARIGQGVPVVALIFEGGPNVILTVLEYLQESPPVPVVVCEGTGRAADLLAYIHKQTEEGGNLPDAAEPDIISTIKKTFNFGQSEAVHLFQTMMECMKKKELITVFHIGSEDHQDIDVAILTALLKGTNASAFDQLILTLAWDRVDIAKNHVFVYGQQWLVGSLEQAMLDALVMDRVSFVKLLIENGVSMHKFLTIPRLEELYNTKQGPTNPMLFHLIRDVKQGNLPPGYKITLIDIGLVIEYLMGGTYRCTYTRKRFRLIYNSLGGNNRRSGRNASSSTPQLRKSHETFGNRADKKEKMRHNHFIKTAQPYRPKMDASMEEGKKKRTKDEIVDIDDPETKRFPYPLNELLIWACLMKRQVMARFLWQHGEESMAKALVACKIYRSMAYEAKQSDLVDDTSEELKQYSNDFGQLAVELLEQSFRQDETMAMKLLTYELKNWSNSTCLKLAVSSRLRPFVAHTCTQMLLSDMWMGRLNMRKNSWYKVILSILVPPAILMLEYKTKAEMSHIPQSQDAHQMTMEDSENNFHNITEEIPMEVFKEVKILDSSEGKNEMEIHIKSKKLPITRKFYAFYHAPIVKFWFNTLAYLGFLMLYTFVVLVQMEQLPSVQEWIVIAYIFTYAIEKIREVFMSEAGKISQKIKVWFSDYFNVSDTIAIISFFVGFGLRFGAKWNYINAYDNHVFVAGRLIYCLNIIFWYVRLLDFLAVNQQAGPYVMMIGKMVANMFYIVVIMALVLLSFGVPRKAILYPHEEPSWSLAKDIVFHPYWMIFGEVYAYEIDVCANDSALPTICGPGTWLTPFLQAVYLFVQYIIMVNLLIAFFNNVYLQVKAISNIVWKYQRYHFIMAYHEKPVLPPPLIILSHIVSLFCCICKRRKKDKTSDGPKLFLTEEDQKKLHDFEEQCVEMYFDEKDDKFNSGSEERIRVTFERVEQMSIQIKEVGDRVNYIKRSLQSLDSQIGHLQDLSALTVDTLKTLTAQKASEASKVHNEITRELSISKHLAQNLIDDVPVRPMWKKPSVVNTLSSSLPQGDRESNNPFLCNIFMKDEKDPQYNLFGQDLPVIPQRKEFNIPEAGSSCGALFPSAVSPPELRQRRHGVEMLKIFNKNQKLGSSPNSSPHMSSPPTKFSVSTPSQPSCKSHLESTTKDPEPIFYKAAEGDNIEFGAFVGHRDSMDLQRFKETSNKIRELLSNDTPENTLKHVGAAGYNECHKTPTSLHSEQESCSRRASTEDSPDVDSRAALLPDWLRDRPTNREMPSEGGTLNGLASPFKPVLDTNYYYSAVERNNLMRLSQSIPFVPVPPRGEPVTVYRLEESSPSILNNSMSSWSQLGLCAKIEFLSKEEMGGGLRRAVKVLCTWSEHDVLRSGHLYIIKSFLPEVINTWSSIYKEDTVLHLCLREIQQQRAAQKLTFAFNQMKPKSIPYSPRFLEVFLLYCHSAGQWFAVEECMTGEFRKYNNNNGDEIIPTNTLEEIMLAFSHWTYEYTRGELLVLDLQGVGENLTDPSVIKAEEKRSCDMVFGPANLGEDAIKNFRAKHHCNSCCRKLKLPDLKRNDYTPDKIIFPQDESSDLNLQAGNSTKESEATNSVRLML

As for `COc1ccccc1N1CCN(CC(O)COc2cccc3ccccc23)CC1` (stereo not drawn), the inhibition result in assay [1] was “Dose-dependent effect”. In the assay on HEK293, the result was inactive. As for `O=C(O)c1cc(=O)cc(C(=O)O)[nH]1`, the result in the assay on HEK293 was inactive.

Regarding `Ic1ccccc1CN[C@@H]1C2CCN(CC2)[C@@H]1C(c1ccccc1)c1ccccc1` (relative stereo), the inhibition entry in assay [1] was “Dose-dependent effect”. Moreover, the result in the assay with HEK293 was inactive.

As to `COC(=O)C1=C(C)NC(C)=C(C(=O)OCCN(C)Cc2ccccc2)C1c1cccc([N+](=O)[O-])c1` (stereo not drawn), the outcome in the assay on HEK293 was inactive. `O=C1c2c(O)ccc(O)c2C(=O)c2c(NCCNCCO)ccc(NCCNCCO)c21`: the outcome in the assay with HEK293 was inactive. Consider `COc1ccc(OC)c(SCc2nnc(-c3ccc([N+](=O)[O-])c(C)c3)o2)c1`, for which the inhibition in assay [1] (concentration not given here) amounted to 80%. For the same compound, the inhibition result in assay [2], in assay [3], in assay [4], in assay [6] and in assay [7] was “Active” each time. The compound further had an inhibition at 10 µM in assay [5] above 20%. Take `COc1cccc(OC)c1OCCNCC1CSc2ccccc2O1` (stereo not drawn): the inhibition entry in assay [1] was “Dose-dependent effect”. The result with HEK293 was inactive. In the case of `COc1cc2c(cc1OC)-c1c/c(=N\c3c(C)cc(C)cc3C)n(C)c(=O)n1CC2`, the inhibition entry in assay [1] is “Dose-dependent effect”. Also, the outcome in the assay with HEK293 was inactive. Take `CCN(CC)CCCC(C)Nc1c2ccc(Cl)cc2nc2ccc(OC)cc12` (stereo not drawn): the result in the assay on HEK293 was inactive. As to `O=[N+]([O-])c1cccc(-c2ccc(/C=N/NC(=S)Nc3cccc(F)c3)o2)c1`, the inhibition in assay [1] (concentration not given here) was 30%. Turning to `COc1cc2c(cc1OC)C(c1cccc(C)c1)N(C(=O)c1sc3ccccc3c1Cl)CC2` (stereo not drawn), the inhibition in assay [1] (concentration not given here) was determined as 40%. For the compound `COc1ccccc1C1CCN(Cc2c[nH]nc2-c2ccccc2)CC1`, the inhibition in assay [1] (concentration not given here) was determined as 80%. For the compound `c1ccc2c(c1)Nc1nc3ccccc3nc1N2`, the inhibition in assay [1] (concentration not given here) was below 30%. Turning to `Cc1onc(-c2c(Cl)cccc2Cl)c1C(=O)Oc1ccccc1`, the inhibition in assay [1] (concentration not given here) is below 30%. On to `O=C(CSc1nccc(-c2cc(-c3ccc(Cl)cc3Cl)no2)n1)Nc1ccc(Cl)cc1`, for which, in assay [1] (concentration not given here), the inhibition was 30%. As for `C[n+]1cc2c3c(ccc2c2ccc4cc5c(cc4c21)OCO5)OCO3`, in the assay with HEK293, the outcome was inactive. Consider `CC(C)(C)c1ccc(N2C(=N)SCC2=O)cc1`, for which the inhibition in assay [1] (concentration not given here) turned out to be 40%.

Take `N#C/C(=N\Nc1cccc(C(F)(F)F)c1)C(=O)c1csc(-c2cccnc2)n1`: the inhibition in assay [1] (concentration not given here) was found to be 60%. `Oc1cc(C(F)(F)F)nc(SCc2ccccc2)n1`: in assay [1] (concentration not given here), the inhibition stood at 80%. Take `COc1cc2c(cc1OC)C(c1cccc(C)c1)NCC2` (stereo not drawn): the inhibition in assay [1] (concentration not given here) was 60%.

For `CCOC(=O)C1=C(C)NC(=O)NC1c1cccc2ccccc12` (stereo not drawn), the inhibition in assay [1] (concentration not given here) is below 30%.

On to `CCCCc1ccc(NC(=O)CSc2nc(-c3ccccc3)c(-c3ccccc3)o2)c(C)c1`, for which the inhibition in assay [1] (concentration not given here) was below 30%.

Regarding `COc1ccc(S(=O)(=O)N2CCC(O)(c3ccc(Cl)cc3)CC2)cc1OC`, the inhibition in assay [1] (concentration not given here) is 40%.

On to `CC(=O)C(C#N)c1nc(-c2ccc(F)cc2)cs1` (stereo not drawn), for which the inhibition in assay [1] (concentration not given here) worked out at 70%. Take `CC1(C)CC(=O)c2c(SCCOC(=O)Nc3cccc(Cl)c3)sc(C#N)c2C1`: the inhibition in assay [1] (concentration not given here) was below 30%. Turning to `O=c1c(-c2ccccc2)c(O)c2cccc3c4ccccc4n1c23`, in assay [1] (concentration not given here), the inhibition turned out to be 90%. Regarding `COc1ccc2c(c1)CC/C(=C\c1ccc(Cl)cc1Cl)C2=O`, the inhibition in assay [1] (concentration not given here) was found to be 60%. With `CC(=O)C(C#N)c1nc(-c2ccc(Cl)c(C)c2)cs1` (stereo not drawn), in assay [1] (concentration not given here), the inhibition is 70%. Same read-out and setting: the same measure for `CC(C)(C)c1ccc(OCc2ncc(S(=O)(=O)c3ccccc3)c(N)n2)cc1`: below 30%; for `N#Cc1ccc(/C=N/Nc2ncc(-c3ccc4c(c3)OCCCO4)s2)cc1`: 70%. Consider `O=C(Oc1ccccc1)c1csc(C2COc3ccccc3O2)n1` (stereo not drawn), for which, in assay [1] (concentration not given here), the inhibition is below 30%. For the compound `C/C=C(\C)C(=O)Nc1nncs1`, the inhibition in assay [1] (concentration not given here) was below 30%.

With `Cc1ccc(NC(=O)c2cccc3c2-c2ccccc2C3)cc1`, the inhibition in assay [1] (concentration not given here) is below 30%. Consider `CCOC(=O)C(=CNNC(=O)c1cnn(-c2ccc([N+](=O)[O-])cc2)c1C(F)(F)F)C(=O)OCC`, for which the inhibition in assay [1] (concentration not given here) was 90%. On to `Cc1onc(-c2c(Cl)cccc2Cl)c1C(=O)Oc1ccc2c(C(F)(F)F)cc(=O)oc2c1`, for which, in assay [1] (concentration not given here), the inhibition is below 30%. Still for that read-out and setting: the same measure for `O=S1(=O)CC=C(S(=O)(=O)c2ccccc2)C1`: below 30%. As to `O=C1/C(=C\c2cccs2)C(c2ccccc2)Oc2ccccc21` (stereo not drawn), in assay [1] (concentration not given here), the inhibition is below 30%.

`CCOC(=O)c1c(C)n(-c2ccccc2)c2ccc(OC(=O)C(c3ccccc3)C3CCCC3)cc12` (stereo not drawn): the inhibition in assay [1] (concentration not given here) was found to be 30%. As to `COc1ccc(C[C@H](N)C(=O)N[C@H]2[C@@H](O)[C@H](n3cnc4c(N(C)C)ncnc43)O[C@@H]2CO)cc1`, the inhibition entry in assay [1] is “Dose-dependent effect”. For `O=C(c1cccs1)N1CCCN(Cc2cccc3ccccc23)CC1`, the inhibition in assay [1] (concentration not given here) turned out to be 80%. Regarding `CCOC(=O)c1sc2nc(C)c(/N=N/c3ccccc3)c(C)c2c1N`, in assay [1] (concentration not given here), the inhibition is below 30%. Turning to `Clc1ccc(-c2noc(-c3sccc3Cl)n2)cc1`, the inhibition in assay [1] (concentration not given here) was determined as 60%. Consider `O=C(c1sc2ccccc2c1Cl)N1CCc2ccccc2C1`, for which, in assay [1] (concentration not given here), the inhibition came out at 70%. On the same count and under the same terms, the same measure for `CSc1nc2c(c(/C=C/c3ccccc3)c1C#N)CCC2`: below 30%. For the compound `COc1ccc(C(=O)Nc2c(-c3cccc(C(F)(F)F)c3)c(C(F)(F)F)nn2C)cc1OC`, the inhibition in assay [1] (concentration not given here) was below 30%. Regarding `COc1ccc(Nc2cc(=O)n(-c3ccccc3)c3c2c(=O)n(C)c(=O)n3C)cc1`, the inhibition in assay [1] (concentration not given here) amounted to 60%. Regarding `COc1ccccc1N1CCN(Cc2c[nH]c(-c3ccccc3)n2)CC1`, the inhibition in assay [1] (concentration not given here) was below 30%. In the case of `CC1(C)C=Cc2ccc(OCC(=O)Nc3ccccc3)cc2O1`, the inhibition in assay [1] (concentration not given here) came out at 30%. As for `COc1cc2c(cc1OC)C(C(=O)c1sc3ccccc3c1Cl)=NCC2`, in assay [1] (concentration not given here), the inhibition came out at 80%. With `Oc1cc(C(F)(F)F)nc2ccc(F)cc12`, the inhibition in assay [1] (concentration not given here) was 80%. Regarding `COc1ccc(C[C@H]2NC[C@H](O)[C@H]2OC(C)=O)cc1`, in assay [1], the inhibition result was “Dose-dependent effect”.

Take `Cc1csc2ncnc(N3CCN(C(=O)Nc4ccc(OC(F)(F)F)cc4)CC3)c12`: the inhibition in assay [1] (concentration not given here) stood at 50%. For `O=[N+]([O-])c1cccc(-c2ccc(/C=N/NC(=S)NCc3ccco3)o2)c1`, in assay [1] (concentration not given here), the inhibition is below 30%. Turning to `COc1cc(C(=O)Oc2c(Cl)cc(Cl)cc2/C=N\c2cccc(C(F)(F)F)c2)cc(OC)c1OC`, the inhibition in assay [1] (concentration not given here) is below 30%. Regarding `CCc1cc2c(Sc3nnc(N)s3)ncnc2s1`, the inhibition in assay [1] (concentration not given here) was 60%. On the same count and under the same terms, the same measure for `COc1ccc2nnc(-c3ccc(C(F)(F)F)cc3)n2n1`: below 30%. On the same count and under the same terms, the same measure for `O=C(/C=N/O)Nc1ccccc1F`: below 30%; for `CCc1ccc2[nH]c(C(=O)N(C)c3ccc(F)cc3F)cc2c1`: below 30%.
